Source: ChEMBL document CHEMBL5385976, “Recognition of arylmethylidene derivatives of imidazothiazolotriazinones as novel tubulin polymerization inhibitors” (RSC Med Chem, 2024)

Tests used:
MDA-MB-435 = assay: Antiproliferative activity against human MDA-MB-435 cells assessed as mean cell growth at 10 uM incubated for 48 hrs by SRB assay relative to control; format: functional
HL-60(TB) = assay: Antiproliferative activity against human HL-60(TB) cells assessed as mean cell growth at 10 uM incubated for 48 hrs by SRB assay relative to control; format: functional
[1] = system: Panel NCI-60 (60 carcinoma cell lines); assay: Antiproliferative activity against human panel NCI-60 (60 carcinoma cell lines) incubated for 48 hrs by SRB assay; format: functional
[2] = system: Panel NCI-60 (60 carcinoma cell lines); assay: Antiproliferative activity against human panel NCI-60 (60 carcinoma cell lines) assessed as total inhibition of cell growth incubated for 48 hrs by SRB assay; format: functional
K562 = assay: Inhibition of cell growth in human K562 cells incubated for 72 hrs by MTT assay; format: functional, cell-based; settings: K562, time 72 hrs
COLO357 = assay: Inhibition of cell growth in human COLO357 cells incubated for 72 hrs by MTT assay; format: functional, cell-based; settings: COLO357, time 72 hrs
Panc02 = assay: Inhibition of cell growth in mouse Panc02 cells incubated for 72 hrs by MTT assay; format: functional
UO-31 = assay: Antiproliferative activity against human UO-31 cells assessed as mean cell growth at 10 uM incubated for 48 hrs by SRB assay relative to control; format: functional
SK-MEL-5 = assay: Antiproliferative activity against human SK-MEL-5 cells assessed as mean cell growth at 10 uM incubated for 48 hrs by SRB assay relative to control; format: functional
A498 = assay: Antiproliferative activity against human A498 cells assessed as mean cell growth at 10 uM incubated for 48 hrs by SRB assay relative to control; format: functional
MDA-MB-468 = assay: Antiproliferative activity against human MDA-MB-468 cells assessed as mean cell growth at 10 uM incubated for 48 hrs by SRB assay relative to control; format: functional
SNB-75 = assay: Antiproliferative activity against human SNB-75 cells assessed as mean cell growth at 10 uM incubated for 48 hrs by SRB assay relative to control; format: functional
SK-OV-3 = assay: Antiproliferative activity against human SK-OV-3 cells assessed as mean cell growth at 10 uM incubated for 48 hrs by SRB assay relative to control; format: functional
DU-145 = assay: Antiproliferative activity against human DU-145 cells assessed as mean cell growth at 10 uM incubated for 48 hrs by SRB assay relative to control; format: functional
NCI-H226 = assay: Antiproliferative activity against human NCI-H226 cells assessed as mean cell growth at 10 uM incubated for 48 hrs by SRB assay relative to control; format: functional
NCI-H522 = assay: Antiproliferative activity against human NCI-H522 cells assessed as mean cell growth at 10 uM incubated for 48 hrs by SRB assay relative to control; format: functional

Structure (SMILES) | Activity (MDA-MB-435) | GI50 [1] | LC50 [1] | GI [2] | other results
CN1C(=O)N(C)C2Nn3c(s/c(=C\c4ccc(Cl)cc4Cl)c3=O)=NC21 (configuration not stated) | 56% |  |  |  | 
CN1C(=O)N(C)C2C1NN=c1s/c(=C\c3ccc(Br)cc3)c(=O)n12 (configuration not stated) | 29% |  |  |  | 
CCN1C(=O)N(CC)C2C1NN=c1s/c(=C\c3ccc(Br)cc3)c(=O)n12 (configuration not stated) |  | 2570 nM | > 100000 nM | >80.5 µM | Cell growth relative to control (HL-60(TB)): 19%; GI50 (K562): 80 nM; GI50 (COLO357): 80 nM; GI50 (Panc02): 400 nM
CCN1C(=O)N(CC)C2C1NN=c1s/c(=C\c3cccc([N+](=O)[O-])c3)c(=O)n12 (configuration not stated) |  | 2020 nM | > 98700 nM | >83.1 µM | Cell growth relative to control (HL-60(TB)): 23%; GI50 (K562): 400 nM; GI50 (COLO357): 400 nM; GI50 (Panc02): 80 nM
COc1ccc(/C=c2\sc3n(c2=O)NC2C(N=3)N(C)C(=O)N2C)cc1 (configuration not stated) |  |  |  |  | Activity (UO-31): 98%
COc1cccc2c1C(=O)c1c(O)c3c(c(O)c1C2=O)C[C@@](O)(C(C)=O)C[C@@H]3O[C@H]1C[C@H](N)[C@H](O)[C@H](C)O1 [DAUNORUBICIN] |  |  |  |  | Activity (SK-MEL-5): -28%
CN1C(=O)N(C)C2Nn3c(s/c(=C\c4ccc(Br)cc4)c3=O)=NC21 (configuration not stated) |  |  |  |  | Activity (UO-31): 98%
CCN1C(=O)N(CC)C2Nn3c(s/c(=C\c4ccc(OC)cc4)c3=O)=NC21 (configuration not stated) | 48% |  |  |  | 
CC[C@@]1(O)C(=O)OCc2c1cc1n(c2=O)Cc2cc3ccccc3nc2-1 [CAMPTOTHECIN] |  |  |  |  | Activity (SK-MEL-5): -27%
CN1C(=O)N(C)C2Nn3c(s/c(=C\c4ccc([N+](=O)[O-])cc4)c3=O)=NC21 (configuration not stated) |  |  |  |  | Activity (A498): 99%
CCN1C(=O)N(CC)C2Nn3c(s/c(=C\c4ccccc4Br)c3=O)=NC21 (configuration not stated) | 22% | 2430 nM | > 95000 nM | >53.6 µM | 
CCN1C(=O)N(CC)C2Nn3c(s/c(=C\c4ccc([N+](=O)[O-])cc4)c3=O)=NC21 (configuration not stated) |  |  |  |  | Activity (MDA-MB-468): 67%
CCN1C(=O)N(CC)C2C1NN=c1s/c(=C\c3ccc(OC)cc3)c(=O)n12 (configuration not stated) |  | 2280 nM | > 95500 nM | >71.4 µM | Cell growth relative to control (HL-60(TB)): 19%; GI50 (K562): 400 nM; GI50 (COLO357): 400 nM; GI50 (Panc02): 16 nM
CCN1C(=O)N(CC)C2Nn3c(s/c(=C\c4ccc(Br)cc4)c3=O)=NC21 (configuration not stated) |  |  |  |  | Activity (SNB-75): 95%
CCN1C(=O)N(CC)C2C1NN=c1s/c(=C\c3ccc([N+](=O)[O-])cc3)c(=O)n12 (configuration not stated) |  | 1040 nM | > 98600 nM | >63 µM | Cell growth relative to control (HL-60(TB)): 26%; GI50 (K562): 400 nM; GI50 (COLO357): 400 nM; GI50 (Panc02): 400 nM
CCN1C(=O)N(CC)C2C1NN=c1s/c(=C\c3ccccc3F)c(=O)n12 (configuration not stated) |  | 240 nM | > 95500 nM | >63.3 µM | Cell growth relative to control (HL-60(TB)): 18%; GI50 (K562): 16 nM; GI50 (COLO357): 16 nM; GI50 (Panc02): 3.2 nM
CCN1C(=O)N(CC)C2Nn3c(s/c(=C\c4cccc([N+](=O)[O-])c4)c3=O)=NC21 (configuration not stated) | 42% |  |  |  | 
CCN1C(=O)N(CC)C2Nn3c(s/c(=C\c4ccc(C(F)(F)F)cc4)c3=O)=NC21 (configuration not stated) |  |  |  |  | Activity (UO-31): 100%
CN1C(=O)N(C)C2Nn3c(s/c(=C\c4ccccc4F)c3=O)=NC21 (configuration not stated) | 69% |  |  |  | 
CCN1C(=O)N(CC)C2C1NN=c1s/c(=C\c3cccc(F)c3)c(=O)n12 (configuration not stated) | 23% | 2450 nM | > 99100 nM | >81.2 µM | GI50 (K562): 80 nM; GI50 (COLO357): 80 nM; GI50 (Panc02): 80 nM
CN1C(=O)N(C)C2C1NN=c1s/c(=C\c3ccc(F)cc3)c(=O)n12 (configuration not stated) |  | 3470 nM | > 97600 nM | >81.5 µM | Cell growth relative to control (HL-60(TB)): 28%
CCN1C(=O)N(CC)C2C1NN=c1s/c(=C\c3ccccc3Br)c(=O)n12 (configuration not stated) |  | 920 nM | > 87500 nM | >38.3 µM | Cell growth relative to control (HL-60(TB)): 21%

Structure (SMILES) | Activity (MDA-MB-435) | GI50 [1] | LC50 [1] | GI [2] | other results
CN1C(=O)N(C)C2C1NN=c1s/c(=C\c3cccc([N+](=O)[O-])c3)c(=O)n12 (configuration not stated) | 88% |  |  |  | 
CN1C(=O)N(C)C2Nn3c(s/c(=C\c4ccc(F)cc4)c3=O)=NC21 (configuration not stated) |  |  |  |  | Activity (SK-OV-3): 103%
COc1cccc2c1C(=O)c1c(O)c3c(c(O)c1C2=O)C[C@@](O)(C(=O)CO)C[C@@H]3O[C@H]1C[C@H](N)[C@H](O)[C@H](C)O1 [DOXORUBICIN] |  |  |  |  | Activity (SK-MEL-5): -20%
CN1C(=O)N(C)C2C1NN=c1s/c(=C\c3ccc(C(F)(F)F)cc3)c(=O)n12 (configuration not stated) | 26% | 4210 nM | > 97700 nM | >72.2 µM | 
CCN1C(=O)N(CC)C2Nn3c(s/c(=C\c4ccccc4)c3=O)=NC21 (configuration not stated) | 67% |  |  |  | 
CC(=O)O[C@H]1C(=O)[C@@]2(C)[C@H]([C@H](OC(=O)c3ccccc3)[C@]3(O)C[C@H](OC(=O)[C@H](O)[C@@H](NC(=O)c4ccccc4)c4ccccc4)C(C)=C1C3(C)C)[C@]1(OC(C)=O)CO[C@@H]1C[C@@H]2O [PACLITAXEL] |  |  |  |  | Activity (DU-145): 15%
CCN1C(=O)N(CC)C2C1NN=c1s/c(=C\c3ccc(C(F)(F)F)cc3)c(=O)n12 (configuration not stated) |  | 610 nM | > 96600 nM | >65.4 µM | Cell growth relative to control (HL-60(TB)): 19%; GI50 (K562): 2000 nM; GI50 (COLO357): 2000 nM; GI50 (Panc02): 2000 nM
CN1C(=O)N(C)C2Nn3c(s/c(=C\c4ccc(C(F)(F)F)cc4)c3=O)=NC21 (configuration not stated) |  |  |  |  | Activity (SNB-75): 102%
CN1C(=O)N(C)C2Nn3c(s/c(=C\c4cccc([N+](=O)[O-])c4)c3=O)=NC21 (configuration not stated) |  |  |  |  | Activity (NCI-H226): 92%
CCN1C(=O)N(CC)C2Nn3c(s/c(=C\c4ccc(F)cc4)c3=O)=NC21 (configuration not stated) |  |  |  |  | Activity (NCI-H522): 101%
CCN1C(=O)N(CC)C2Nn3c(s/c(=C\c4cccc(F)c4)c3=O)=NC21 (configuration not stated) | 65% |  |  |  | 
CCN1C(=O)N(CC)C2C1NN=c1s/c(=C\c3ccccc3)c(=O)n12 (configuration not stated) |  | 2290 nM | > 97600 nM | >84.6 µM | Cell growth relative to control (HL-60(TB)): 19%; GI50 (K562): 80 nM; GI50 (COLO357): 80 nM; GI50 (Panc02): 80 nM
CN1C(=O)N(C)C2C1NN=c1s/c(=C\c3ccccc3F)c(=O)n12 (configuration not stated) |  | 610 nM | > 97600 nM | >75.9 µM | Cell growth relative to control (HL-60(TB)): 21%; GI50 (K562): 400 nM; GI50 (COLO357): 80 nM; GI50 (Panc02): 16 nM
CCN1C(=O)N(CC)C2Nn3c(s/c(=C\c4ccc(Cl)cc4Cl)c3=O)=NC21 (configuration not stated) | 40% |  |  |  | 
CCN1C(=O)N(CC)C2Nn3c(s/c(=C\c4ccccc4F)c3=O)=NC21 (configuration not stated) | 41% |  |  |  | 
CN1C(=O)N(C)C2Nn3c(s/c(=C\c4ccccc4)c3=O)=NC21 (configuration not stated) |  |  |  |  | Activity (A498): 97%
CN1C(=O)N(C)C2C1NN=c1s/c(=C\c3ccccc3)c(=O)n12 (configuration not stated) | 41% |  |  |  | 
CCN1C(=O)N(CC)C2C1NN=c1s/c(=C\c3ccc(F)cc3)c(=O)n12 (configuration not stated) |  | 1680 nM | > 97800 nM | >81.3 µM | Cell growth relative to control (HL-60(TB)): 21%; GI50 (K562): 400 nM; GI50 (COLO357): 80 nM; GI50 (Panc02): 80 nM
CN1C(=O)N(C)C2C1NN=c1s/c(=C\c3ccc([N+](=O)[O-])cc3)c(=O)n12 (configuration not stated) | 58% |  |  |  | 
CN1C(=O)N(C)C2C1NN=c1s/c(=C\c3ccc(Cl)cc3Cl)c(=O)n12 (configuration not stated) |  | 650 nM | > 100000 nM | >78 µM | Cell growth relative to control (HL-60(TB)): 27%; GI50 (K562): 80 nM; GI50 (COLO357): 80 nM; GI50 (Panc02): 80 nM
COc1ccc(/C=c2\sc3n(c2=O)C2C(NN=3)N(C)C(=O)N2C)cc1 (configuration not stated) | 24% | 7320 nM | > 100000 nM | >83.8 µM | GI50 (K562): 2000 nM; GI50 (COLO357): 400 nM; GI50 (Panc02): 400 nM
